Series [1] has as its system 3T3-L1 Adipocytes. Briefly: Free fatty acid levels in cultured mouse 3T3-L1 adipocytes, isoproterenol stimulated (Example 17). In kind it is cell-based. Particulars: isoproterenol 1 nM. The method, then: Mouse 3T3-L1 cells were seeded at a density between 1,000-20,000 cells per well on 96-well, 48-well, or 24-well plates in Pre-adipocyte Medium (Zen-Bio, Durham, N.C.) and grown to confluence at 37° C. in a humidified atmosphere of 5% CO2/95% air. Two days after confluence, cells were placed in Adipocyte Differentiation Medium (Zen-Bio, Durham, N.C.) and cultured for three additional days at 37° C. in a humidified atmosphere of 5% CO2/95% air. The culture media was then replaced with Adipocyte Maintenance Medium (Zen-Bio) and the cells were maintained for an additional 9-14 days at 37° C. in a humidified atmosphere of 5% CO2/95% air with partial medium replacement every other day. Following 12-17 days of differentiation, test peptides were added at a final concentration of 25-50 μM and incubated for 18-20 hours in Adipocyte Maintenance Medium at 37° C. in a humidified atmosphere of 5% CO2/95%. After the media incubation, media was removed and exchanged with Assay Buffer (Zen-Bio) containing isoproterenol (1 nM) (added to all samples except untreated controls) and the test peptides. Cells were incubated for a further 3 hours at 37° C. in a humidified atmosphere of 5% CO2/95%. Free fatty acid concentrations in the media were determined using a Free Fatty Acid Assay Kit (Zen-Bio) according to the manufacturer's instructions using a plate reader (540 nm).
Absorbance values were corrected for untreated background and expressed relative to isoproterenol treated cells. Treatment with isoproterenol (1 nM) alone was used as the free fatty acid level stimulatory control. The relative standard deviation of the isoproterenol control was <10%. […] Free fatty acid levels for insulin (100 nM) treatment were <5% of the isoproterenol control value.

In series [2] the test system is 3T3-L1 Adipocytes. The series is described as follows: Free fatty acid levels in cultured mouse 3T3-L1 adipocytes, isoproterenol stimulated (Example 2). The format is cell-based. Conditions: test peptides 25 μM; isoproterenol 1 nM. The method, boiled down: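 3T3-L1 cells differentiated 12–17 days into adipocytes, then exposed to test peptides at 25 μM final for 18–20 h, then 1 h, then 3 h with isoproterenol (1 nM) at 37 °C. Free fatty acids in the medium measured colorimetrically at 540 nm, corrected for untreated background and expressed relative to isoproterenol-only cells.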

Series [3] deals with Human Primary Adipocytes. Briefly: Free fatty acid levels in cultured human primary adipocytes, forskolin stimulated (Example 5). The format is cell-based. Conditions: test peptides 25 μM; forskolin 1 μM. The method, then:
Human primary adipocytes were seeded at 5,000-100,000 cells per well on 96-well, 48-well, or 24-well plate in Pre-adipocyte Medium (Zen-Bio, Durham, N.C.) and grown to confluence at 37° C. in a humidified atmosphere of 5% CO2/95% air. Two days after confluence, cells were placed in Adipocyte Differentiation Medium (Zen-Bio, Durham, N.C.) and cultured for three additional days at 37° C. in a humidified atmosphere of 5% CO2/95% air. The culture media was then replaced with Adipocyte Maintenance Medium (Zen-Bio) and the cells were maintained for an additional 11-21 days at 37° C. in a humidified atmosphere of 5% CO2/95% air with partial medium replacement every other day. Following 14-24 days of differentiation, test peptides were added at a final concentration of 25 μM and incubated for 18-20 hours in Adipocyte Maintenance Medium at 37° C. in a humidified atmosphere of 5% CO2/95%. After 18-20 hours, the media was exchanged with fresh Adipocyte Maintenance Medium containing test peptides and incubated for 1 h at 37° C. in a humidified atmosphere of 5% CO2/95%. After 1 h media was exchanged with Assay Buffer (Zen-Bio) containing forskolin (1 μM) (added to all samples except untreated controls) and test peptides. Cells were incubated for a further 3 hours at 37° C. in a humidified atmosphere of 5% CO2/95%. Free fatty acid concentrations in the media were determined using a Free Fatty Acid Assay Kit (Zen-Bio) according to the manufacturer's instructions using a plate reader (540 nm). Absorbance values were corrected for untreated background and expressed relative to forskolin treated cells. Treatment with forskolin (1 μM) alone was used as the free fatty acid level stimulatory control. The relative standard deviation of the forskolin control was <20%. […] Free fatty acid levels for insulin (100 nM) treatment were <8% of the forskolin control value.

The subject of series [4] is Human Primary Adipocytes. Briefly: Free fatty acid levels in cultured human primary adipocytes, isoproterenol stimulated (Example 4). The format is cell-based. Particulars: test peptides 25 μM; isoproterenol 1 nM. The method, then:
Human primary adipocytes were seeded at 5,000-100,000 cells per well on 96-well, 48-well, or 24-well plates in Pre-adipocyte Medium (Zen-Bio, Durham, N.C.) and grown to confluence at 37° C. in a humidified atmosphere of 5% CO2/95% air. Two days after confluence, cells were placed in Adipocyte Differentiation Medium (Zen-Bio, Durham, N.C.) and cultured for three additional days at 37° C. in a humidified atmosphere of 5% CO2/95% air. The culture media was then replaced with Adipocyte Maintenance Medium (Zen-Bio) and the cells were maintained for an additional 11-21 days at 37° C. in a humidified atmosphere of 5% CO2/95% air with partial medium replacement every other day. Following 14-24 days of differentiation, test peptides were added at a final concentration of 25 μM and incubated for 18-20 hours in Adipocyte Maintenance Medium at 37° C. in a humidified atmosphere of 5% CO2/95%. After 18-20 hours, the media was exchanged with fresh Adipocyte Maintenance Medium containing test peptides and incubated for 1 h at 37° C. in a humidified atmosphere of 5% CO2/95%. After 1 h media was exchanged with Assay Buffer (Zen-Bio) containing isoproterenol (1 nM) (added to all samples except untreated controls) and test peptides. Cells were incubated for a further 3 hours at 37° C. in a humidified atmosphere of 5% CO2/95%. Free fatty acid concentrations in the media were determined using a Free Fatty Acid Assay Kit (Zen-Bio) according to the manufacturer's instructions using a plate reader (540 nm). Absorbance values were corrected for untreated background and expressed relative to isoproterenol treated cells. Treatment with isoproterenol (1 nM) alone was used as the free fatty acid level stimulatory control. The relative standard deviation of the isoproterenol control was <14%. […] Free fatty acid levels for insulin (100 nM) treatment were <5% of the isoproterenol control value.

Series [5] is described as follows: Stability in mouse plasma, peptides 100 uM (Example 14). In kind it is in vitro ADME. Conditions: mouse plasma 37° C., peptide 100 uM. The method, then:
Peptides (100 uM) were incubated in pooled mouse plasma at 37° C. and samples were removed and immediately analyzed for the concentration of intact peptide by LC/MS/MS over the course of 3 hours. The percent of peptide remaining in plasma at each time point was calculated relative to the initial peak area (Table 12).

The fraction remaining is what is left of the initial amount, in per cent.

Ends that are not written are not given here. Peptide text beside a SMILES is read from it. * marks the point of attachment. Biotin = O=C1N[C@H]2[C@H](CS[C@H]2CCCCC(=O)*)N1

Consider H-QEMNYIFYP-OH [compound 363], for which the “Free Fatty Acid Levels in 3T3-L1 Adipocytes Expressed as a Percent of Isoproterenol Control: Percent of Control Value” with 3T3-L1 Adipocytes [1] (Peptide Concentration 25 μM) worked out at 131.5%. H-EMNYIFYP-OH [compound 362]: the “Free Fatty Acid Levels in 3T3-L1 Adipocytes Expressed as a Percent of Isoproterenol Control: Percent of Control Value” in the series on 3T3-L1 Adipocytes [1] (Peptide Concentration 25 μM) is recorded as 92.5%. On to Ac-YIFYPRKLR-NH2 [compound 58], for which the “Free Fatty Acid Levels in 3T3-L1 Adipocytes Expressed as a Percent of Isoproterenol Control: Percent of Control Value” in the series on 3T3-L1 Adipocytes [2] turned out to be 97.3%. Besides, in the series with Human Primary Adipocytes [3], the “Free Fatty Acid Levels in Human Primary Adipocytes Expressed as a Percent of Forskolin Control: Percent of Control Value” is 134%. In addition, the “Free Fatty Acid Levels in Human Primary Adipocytes Expressed as a Percent of Isoproterenol Control: Percent of Control Value” in the series with Human Primary Adipocytes [4] is on record as 164%.

H-YIFYPR-OH [compound 296]: in the series with 3T3-L1 Adipocytes [1] (Peptide Concentration 25 μM), the “Free Fatty Acid Levels in 3T3-L1 Adipocytes Expressed as a Percent of Isoproterenol Control: Percent of Control Value” came to 85.0%. On to “370 (PEG600-KWQEMNYIFYPR) [compound 370]”, for which, in the series with 3T3-L1 Adipocytes [1] (Peptide Concentration 50 μM), the “Free Fatty Acid Levels in 3T3-L1 Adipocytes Expressed as a Percent of Isoproterenol Control: Percent of Control Value” is on record as 129.0%.

Take 369 (PEG600-KEMNYIFYPR) [compound 369]: the “Free Fatty Acid Levels in 3T3-L1 Adipocytes Expressed as a Percent of Isoproterenol Control: Percent of Control Value” in the series on 3T3-L1 Adipocytes [1] (Peptide Concentration 50 μM) worked out at 87.5%. With H-WQEMNYIFY-OH [compound 365], in the series with 3T3-L1 Adipocytes [1] (Peptide Concentration 25 μM), the “Free Fatty Acid Levels in 3T3-L1 Adipocytes Expressed as a Percent of Isoproterenol Control: Percent of Control Value” worked out at 85.6%. Regarding “371 (PEG600-KRWQEMNYIFYP) [compound 371]”, the “Free Fatty Acid Levels in 3T3-L1 Adipocytes Expressed as a Percent of Isoproterenol Control: Percent of Control Value” in the series on 3T3-L1 Adipocytes [1] (Peptide Concentration 50 μM) turned out to be 118.0%.

For the compound “358 (Biotin-RWQEMNYIFYPR) [compound 358]”, the “Free Fatty Acid Levels in 3T3-L1 Adipocytes Expressed as a Percent of Isoproterenol Control: Percent of Control Value” with 3T3-L1 Adipocytes [1] (Peptide Concentration 25 μM) is 60.8%.

In the case of H-RWQEM-OH [compound 351], the “Free Fatty Acid Levels in 3T3-L1 Adipocytes Expressed as a Percent of Isoproterenol Control: Percent of Control Value” with 3T3-L1 Adipocytes [1] (Peptide Concentration 25 μM) is listed as 100.1%. For the compound “359 (RWQEMNYIFYPRK-biotin; not fully specified (residue 13); printed as RWQEMNYIFYPRK-(Biotin)) [compound 359]”, in the series with 3T3-L1 Adipocytes [1] (Peptide Concentration 25 μM), the “Free Fatty Acid Levels in 3T3-L1 Adipocytes Expressed as a Percent of Isoproterenol Control: Percent of Control Value” stood at 34.8%. As to H-RWQEMNYIFYPR-NH2 [compound 354], the “Free Fatty Acid Levels in 3T3-L1 Adipocytes Expressed as a Percent of Isoproterenol Control: Percent of Control Value” in the series with 3T3-L1 Adipocytes [1] (Peptide Concentration 25 μM) was 92.3%.

368 (PEG600-KNYIFYPR) [compound 368]: in the series with 3T3-L1 Adipocytes [1] (Peptide Concentration 50 μM), the “Free Fatty Acid Levels in 3T3-L1 Adipocytes Expressed as a Percent of Isoproterenol Control: Percent of Control Value” was 70.0%. As for `CC[C@H](C)[C@H](NC(=O)[C@H](Cc1ccc(O)cc1)NC(=O)[C@H](CC(N)=O)NC(=O)[C@H](CCSC)NC(=O)[C@H](CCC(=O)O)NC(=O)[C@H](CCC(N)=O)NC(=O)[C@H](Cc1c[nH]c2ccccc12)NC(=O)[C@@H](N)CCCNC(=N)N)C(=O)N[C@@H](Cc1ccccc1)C(=O)N[C@@H](Cc1ccc(O)cc1)C(=O)N1CCC[C@H]1C(=O)N[C@@H](CCCNC(=N)N)C(=O)N[C@H](C)C(=O)O` [compound 355] (HELM PEPTIDE1{R.W.Q.E.M.N.Y.I.F.Y.P.R.[dA]}$$$$V2.0), the “Free Fatty Acid Levels in 3T3-L1 Adipocytes Expressed as a Percent of Isoproterenol Control: Percent of Control Value” with 3T3-L1 Adipocytes [1] (Peptide Concentration 25 μM) is given as 97.8%. On to H-MRWQEMGYIFYPRK(Ac)LR-OH [compound 69], for which the “Free Fatty Acid Levels in 3T3-L1 Adipocytes Expressed as a Percent of Isoproterenol Control: Percent of Control Value” in the series on 3T3-L1 Adipocytes [2] stood at 61.3%. Besides, the “Free Fatty Acid Levels in Human Primary Adipocytes Expressed as a Percent of Forskolin Control: Percent of Control Value” with Human Primary Adipocytes [3] was 119%. The “Free Fatty Acid Levels in Human Primary Adipocytes Expressed as a Percent of Isoproterenol Control: Percent of Control Value” in the series on Human Primary Adipocytes [4] was determined as 53.0%. Besides, in series [5] (0 min), the “% Remaining at Each Time Point: 0 min” value was 100%. Moreover, in series [5] (pooled mouse plasma, 15 min, read-out: % Remaining at Each Time Point: 15 min), the fraction remaining at 0.25 h, 100 uM was determined as 33.1%. Besides, the amount remaining at 0.5 h, 100 uM in series [5] (pooled mouse plasma, 30 min, read-out: % Remaining at Each Time Point: 30 min) is 37.7%. Further, the share remaining at 1 h, 100 uM in series [5] (pooled mouse plasma, 60 min, read-out: % Remaining at Each Time Point: 60 min) was found to be 19.3%. Moreover, the share remaining at 2 h, 100 uM in series [5] (pooled mouse plasma, 120 min, read-out: % Remaining at Each Time Point: 120 min) was 5.96%. Besides, in series [5] (pooled mouse plasma, 180 min, read-out: % Remaining at Each Time Point: 180 min), the share remaining at 3 h, 100 uM turned out to be 2.11%. Turning to “367 (Biotin-KRWQEMNYIFYPR) [compound 367]”, the “Free Fatty Acid Levels in 3T3-L1 Adipocytes Expressed as a Percent of Isoproterenol Control: Percent of Control Value” with 3T3-L1 Adipocytes [1] (Peptide Concentration 50 μM) is reported as 59.0%.

H-IFYPR-OH [compound 360]: in the series on 3T3-L1 Adipocytes [1] (Peptide Concentration 25 μM), the “Free Fatty Acid Levels in 3T3-L1 Adipocytes Expressed as a Percent of Isoproterenol Control: Percent of Control Value” is recorded as 94.6%.

Consider 372 (PEG600-KWQEMNYIFYP) [compound 372], for which, in the series on 3T3-L1 Adipocytes [1] (Peptide Concentration 50 μM), the “Free Fatty Acid Levels in 3T3-L1 Adipocytes Expressed as a Percent of Isoproterenol Control: Percent of Control Value” worked out at 168.0%.

Source of the values: patent publication US11753445B2, “Therapeutic peptides” (COHBAR, INC., priority 2016, dated 2023).
